Reference: US12414980B2, “Pharmaceutical composition comprising RUNX3 protein and CDK4 inhibitor or mTOR inhibitor cotreatment for prevention or treatment of cancer” (GeneCraft Inc., priority 2020, dated 2025)
Values belong to the compound of their own block, whether it stands above or below them.

Key:
[1] = test system: PANC1 pancreatic cancer cell line; conditions: administered simultaneously with adenovirus expressing Runx3 protein, FIG. 8
[2] = test system: Runx3-BRD2 complex; assay: Runx3-BRD2 complex formation after serum stimulation, immunoprecipitation (IP) and immunoblotting (IB); assay type: cell-based; conditions: for time for which the binding of Runx3 and BRD2 was maintained: after serum stimulation
[3] = test system: normal cells; conditions: cited from earlier work
[4] = test system: H460 lung cancer cell line; conditions: administered simultaneously with adenovirus expressing Runx3 protein, FIG. 8
[5] = test system: p300-RUNX3 complex; conditions: treatment with MEK1 inhibitor (1 μM per methods); FIG. 3a
[6] = test system: ARF; assay: time-dependent expression of ARF after serum stimulation, immunoblotting (IB); assay type: cell-based; conditions: suppression of mTOR using rapamycin (100 nM per methods); FIG. 3h
Source text: HDAC4 siRNA was purchased from Cell Signaling Technology.

- physical binding between Runx3 and Brd2 8 hours after serum stimulation ([2]; CDK4 inhibitor at 1 nM): not observed
SMILES: CC(=O)c1c(C)c2cnc(Nc3ccc(N4CCNCC4)cn3)nc2n(C2CCCC2)c1=O [PD0332991]
- cancer apoptotic effect versus adenovirus expressing Runx3 protein alone [1]: significantly increased
- time for which the binding of Runx3 and BRD2 was maintained ([2]; CDK4 inhibitor present at 11 nM, FIG. 5): up to 8 hours
- toxicity to normal cells ([3]; concentration of 11 nM): non-toxic
- cancer apoptotic effect versus adenovirus expressing Runx3 protein alone [4]: significantly increased

SMILES: N#CC(=C(/N)Sc1ccccc1N)/C(C#N)=C(\N)Sc1ccccc1N [U0126]
- binding of BRD2-RUNX3 ([2]; treatment with MEK1 inhibitor (1 μM per methods), FIG. 3a): inhibited
- binding of p300-RUNX3 [5]: inhibited

SMILES: CO[C@H]1C[C@@H]2CC[C@@H](C)[C@@](O)(O2)C(=O)C(=O)N2CCCC[C@H]2C(=O)O[C@H]([C@H](C)C[C@@H]2CC[C@@H](O)[C@H](OC)C2)CC(=O)[C@H](C)/C=C(\C)[C@@H](O)[C@@H](OC)C(=O)[C@H](C)C[C@H](C)/C=C/C=C/C=C/1C [rapamycin]
- cancer apoptotic effect versus adenovirus expressing Runx3 protein alone [1]: significantly increased
- time to which the expression of ARF was extended [6]: up to 8 hours
- time for which the binding of Runx3 and BRD2 was maintained ([2]; mTOR inhibitor present at 100 nM, FIG. 6): up to 8 hours
- maintenance of Rpa-RX3-AC ([2]; suppression of mTOR using rapamycin (100 nM per methods), FIG. 3h): maintained
- cytotoxicity to normal cells ([3]; concentration of 100 nM): non-cytotoxic
- cancer apoptotic effect versus adenovirus expressing Runx3 protein alone [4]: significantly increased
